Measurements reported in US7521397B2, “Disubstituted pyrazolyl carboxanilides” (Bayer CropScience AG, priority 2002, dated 2009).
Where two headings read alike, the source gives them in different places.

Assays:
[1] = logP determination by HPLC on reverse-phase column (EEC Directive 79/831 Annex V.A8); type: physicochemical; settings: reverse-phase C18 HPLC column
Procedure: The logP values given in the tables and Preparation Examples above are determined in accordance with EEC Directive 79/831 Annex V.A8 by HPLC (High Performance Liquid Chromatography) on a reverse-phase column (C 18). Temperature: 43° C. In the acidic range, the determination is carried out at pH 2.3 using the mobile phases 0.1% aqueous phosphoric acid and acetonitrile; linear gradient from 10% acetonitrile to 90% acetonitrile. Calibration is carried out using unbranched alkan-2-ones (of 3 to 16 carbon atoms) with known logP values (determination of the logP values by the retention times using linear interpolation between two successive alkanones).

Podosphaera leucotricha = experiment: Podosphaera test (apple)/protective; type: in vivo; settings: topical, 240 h, protective spray, application rate 100 g/ha, evaluation 10 days after inoculation, read-out: Efficacy in %
Procedure: (§1) [table] To produce a suitable preparation of active compound, 1 part by weight of active compound is mixed with the stated amounts of solvent and emulsifier, and the concentrate is diluted with water to the desired concentration. To test for protective activity, young plants are sprayed with the preparation of active compound at the stated application rate. After the spray coating has dried on, the plants are inoculated with an aqueous spore suspension of the apple mildew pathogen Podosphaera leucotricha. The plants are then placed in a greenhouse at about 23° C. and a relative atmospheric humidity of about 70%. Evaluation is carried out 10 days after the inoculation. 0% means an efficacy which corresponds to that of the control, whereas an efficacy of 100% means that no infection is observed.

Sphaerotheca fuliginea = experiment: Sphaerotheca test (cucumber)/protective; type: in vivo; settings: Podosphaera fuliginea, topical, 168 h, protective spray, application rate 100 g/ha, evaluation 7 days after inoculation, read-out: Efficacy in %
Procedure: as §1, with “the Sphaerotheca fuliginea.” for “the apple mildew pathogen Podosphaera leucotricha.”, “out 7” for “out 10”

Venturia inaequalis = experiment: Venturia test (apple)/protective; type: in vivo; settings: topical, 240 h, protective spray, application rate 100 g/ha, evaluation 10 days after inoculation, read-out: Efficacy in %
Procedure: as §1, with “conidia” for “spore”, “scab” for “mildew”, “Venturia inaequalis and then remain in an incubation cabin at about 20° C. and 100% relative atmospheric humidity for 1 day.” for “Podosphaera leucotricha.”, “21°” for “23°”, “90%.” for “70%.”

Alternaria solani = experiment: Alternaria test (tomato)/protective; type: in vivo; settings: protective spray, application rate 750 g/ha, evaluation 7 days after inoculation
Procedure: [table] To produce a suitable preparation of active compound, 1 part by weight of active compound is mixed with the stated amounts of solvent and emulsifier, and the concentrated is diluted with water to the desired concentration. To test for protective activity, young tomato plants are sprayed with the preparation of active compound at the stated application rate. 1 day after the treatment, the plants are inoculated with a spore suspension of Alternaria solani and are then kept at 100% relative atmospheric humidity and 20° C. for 24 h. The plants are then kept at 96% relative atmospheric humidity and a temperature of 20° C. Evaluation is carried out 7 days after the inoculation. 0% means an efficacy which corresponds to that of the control, whereas an efficacy of 100% means that no infection is observed.

[2] = Table 1, 43° C., acidic range pH 2.3, read-out: logP
[3] = pH 2.3, 43° C., preparation examples, read-out: logP (pH 2.3)

SMILES	chromatographic logP [1, 2]	pest or weed control at 100 g/ha (Podosphaera leucotricha) [%]	pest or weed control at 100 g/ha (Sphaerotheca fuliginea) [%]	pest or weed control at 100 g/ha (Venturia inaequalis) [%]	Efficacy in % (Alternaria solani) [%]	chromatographic logP [1, 3]
Cn1cc(C(=O)Nc2ccc(F)cc2-c2ccc(F)c(Cl)c2)c(C(F)F)n1 [Example 12]	3.07	100	100	100		
Cn1cc(C(=O)Nc2ccc(F)cc2-c2ccc(Cl)c(Cl)c2)c(C(F)F)n1 [Example 11]	3.33	100	100	100		
Cn1cc(C(=O)Nc2ccc(F)cc2-c2ccc(Cl)c(Cl)c2)c(C(F)(F)F)n1 [Example 5]	3.57	100	100	100	100	
Cn1cc(C(=O)Nc2c(F)cccc2-c2ccc(Cl)c(Cl)c2)c(C(F)F)n1 [Example 7]	3.1	100	100	100		
Cn1cc(C(=O)Nc2cc(F)ccc2-c2ccc(Cl)c(Cl)c2)c(C(F)(F)F)n1 [Example 3]	3.75	100	100	100	100	
Cn1cc(C(=O)Nc2c(F)cccc2Br)c(C(F)(F)F)n1 [Example (IV-1)]						2.12
Cn1cc(C(=O)Nc2ccc(F)cc2-c2ccc(F)c(Cl)c2)c(C(F)(F)F)n1 [Example 6]	3.26	100	98	100	100	
Cn1cc(C(=O)Nc2cc(F)ccc2-c2ccc(Cl)c(Cl)c2)c(C(F)F)n1 [Example 9]	3.55	83	94	99		
Cn1cc(C(=O)Nc2c(F)cccc2-c2ccc(Cl)c(Cl)c2)c(C(F)(F)F)n1 [Example 1, N-(3′,4′-dichloro-3-fluoro-1,1′-biphenyl-2-yl)-1-methyl-3-(trifluoromethyl)-1H-pyrazole-4-carboxamide]		100	100	100	100	3.1
Nc1ccc(F)cc1-c1ccc(Cl)c(Cl)c1 [Example (III-2), 3′,4′-Dichloro-5-fluoro-1,1′-biphenyl-2-amine]						3.62
Cn1cc(C(=O)Nc2cc(F)ccc2-c2ccc(F)c(Cl)c2)c(C(F)F)n1 [Example 10]	3.29	100	100	100		
Nc1c(F)cccc1-c1ccc(Cl)c(Cl)c1 [Example (III-1), 3′,4′-dichloro-3-fluoro-1,1′-biphenyl-2-amine]						4.09
Cn1cc(C(=O)Nc2cc(F)ccc2-c2ccc(F)c(Cl)c2)c(C(F)(F)F)n1 [Example 4]	3.51	100	99	100	100	
Cn1cc(C(=O)Nc2c(F)cccc2-c2ccc(F)c(Cl)c2)c(C(F)(F)F)n1 [Example 2]					100	3.04
